Results reported in patent US10681909B2, “Herbicidal triazoles” (FMC Corporation, priority 2014, dated 2020).

What was measured:
[1] = tested on: canarygrass; assay: Test D postemergence; assay type: in vivo, Phalaris minor; details: scale 0 to 100
Text: (§1) Seeds of plant species selected from bluegrass (annual bluegrass, Poa annua), blackgrass (Alopecurus myosuroides), canarygrass (Phalaris minor), chickweed (common chickweed, Stellaria media), galium (catchweed bedstraw, Galium aparine), bromegrass, down (downy bromegrass, Bromus tectorum), Russian thistle (Salsola kali), field poppy (Papaver rhoeas), field violet (Viola arvensis), foxtail, green (green foxtail, Setaria viridis), deadnettle (henbit deadnettle, Lamium amplexicaule), ryegrass, Ital. (Italian ryegrass, Lolium multiflorum), kochia (Kochia scoparia), lambsquarters (Chenopodium album), oilseed rape (Brassica napus), pigweed (Amaranthus retroflexus), chamomile (scentless chamomile, Matricaria inodora), speedwell (bird's-eye speedwell, Veronica persica), barley, spring (spring barley, Hordeum vulgare), wheat, spring (spring wheat, Triticum aestivum), buckwheat, wild (wild buckwheat, Polygonum convolvulus), wild mustard (Sinapis arvensis), oat, wild (wild oat, Avena fatua), radish, wild (wild radish, Raphanus raphanistrum), […]), barley, winter (winter barley, Hordeum vulgare), and wheat, winter (winter wheat, Triticum aestivum) were planted into a silt loam soil and treated preemergence with test chemicals formulated in a non-phytotoxic solvent mixture which included a surfactant. At the same time, these species were planted in pots containing Sunshine Redi-Earth® planting medium comprising spaghnum peat moss, vermiculite, starter nutrients and dolomitic limestone and treated with postemergence applications of the test chemicals formulated in the same manner. Plants ranged in height from 2 to 18 cm (1- to 4-leaf stage). Treated plants and controls were maintained in a controlled growth environment for 14 to 21 d after which time all species were compared to controls and visually evaluated. […] A dash (-) response means no test result.

[2] = tested on: ryegrass, Ital.; assay: Test D preemergence; assay type: in vivo, Lolium multiflorum; details: for Plant response rating (0 to 100), Ryegrass, Ital.: 16 g ai/ha, 0 is no effect, 100 is complete control; for Plant response rating: Ryegrass, Ital.: scale 0 to 100
Text: as §1

[3] = tested on: johnsongrass; assay: Test C preemergence; assay type: in vivo, Sorghum halepense; details: for Plant response rating (scale of 0 to 100 where 0 is no effect and 100 is complete control): Johnsongrass, preemergence; for Johnsongrass plant response rating (0 to 100): Preemergence, visual rating after 13 to 15 d
Text: Seeds of plant species selected from blackgrass (Alopecurus myosuroides), ryegrass, Italian (Italian ryegrass, Lolium multiflorum), wheat (winter wheat, Triticum aestivum), galium (catchweed bedstraw, Galium aparine), corn (Zea mays), crabgrass, large (large crabgrass, Digitaria sanguinalis), foxtail, giant, (giant foxtail, Setaria faberii), johnsongrass (Sorghum halepense), lambsquarters (Chenopodium album), morningglory (Ipomoea coccinea), nutsedge, yellow (yellow nutsedge, Cyperus esculentus), pigweed (Amaranthus retroflexus), ragweed (common ragweed, Ambrosia elatior), soybean (Glycine max), barnyardgrass (Echinochloa crus-galli), oilseed rape (Brassica napus), waterhemp (common waterhemp, Amaranthus rudis), and velvetleaf (Abutilon theophrasti) were planted into a blend of loam soil and sand and treated preemergence with test chemicals formulated in a non-phytotoxic solvent mixture which included a surfactant. At the same time, plants selected from these crop and weed species and also chickweed (common chickweed, Stellaria media), oat, wild (wild oat, Avena fatua), and kochia (Kochia scoparia), were planted in pots containing Sunshine Redi-Earth® planting medium comprising spaghnum peat moss, vermiculite, starter nutrients and dolomitic limestone and treated with postemergence applications of test chemicals formulated in the same manner. Plants ranged in height from 2 to 18 cm (1- to 4-leaf stage) for postemergence treatments. […] A dash (-) response means no test result.

[4] = tested on: barley, spring; assay: Test D postemergence; assay type: in vivo, Hordeum vulgare; details: scale 0 to 100
Text: as §1

[5] = tested on: barley, winter; assay: Test D postemergence; assay type: in vivo, Hordeum vulgare; details: scale 0 to 100
Text: as §1

[6] = tested on: ryegrass, Ital.; assay: Test D postemergence; assay type: in vivo, Lolium multiflorum; details: scale 0 to 100
Text: as §1

[7] = tested on: chickweed; assay: Test D preemergence; assay type: in vivo, Stellaria media; details: for Plant response rating (0 to 100), Chickweed: 16 g ai/ha, 0 is no effect, 100 is complete control; for Plant response rating: Chickweed: scale 0 to 100
Text: as §1

[8] = tested on: windgrass; assay: Test D preemergence; assay type: in vivo, Apera spica-venti; details: for Plant response rating (0 to 100), Windgrass: 16 g ai/ha, 0 is no effect, 100 is complete control; for Plant response rating: Windgrass: scale 0 to 100
Text: as §1

[9] = tested on: galium; assay: Test D postemergence; assay type: in vivo, Galium aparine; details: scale 0 to 100
Text: as §1

[10] = tested on: wheat, spring; assay: Test D postemergence; assay type: in vivo, Triticum aestivum; details: scale 0 to 100
Text: as §1

[11] = tested on: wheat, winter; assay: Test D postemergence; assay type: in vivo, Triticum aestivum; details: scale 0 to 100
Text: as §1

Fc1ccc(-c2nc(OCC(F)(F)F)n(Cc3ccnc(C(F)(F)F)c3)n2)cc1 [Compound 30]
Plant response rating: Canarygrass ([1]; 16 g ai/ha): 55
Plant response rating: Canarygrass ([1]; 31 g ai/ha): 65
Plant response rating: Canarygrass ([1]; 62 g ai/ha): 75
Plant response rating: Canarygrass ([1]; 125 g ai/ha): 80
Plant response rating (0 to 100), Ryegrass, Ital. [2]: 40
Plant response rating: Ryegrass, Ital. ([2]; 62 g ai/ha): 55
Plant response rating: Ryegrass, Ital. ([2]; 125 g ai/ha): 70
Plant response rating (scale of 0 to 100 where 0 is no effect and 100 is complete control) ([3]; 125 g ai/ha): 85
Plant response rating (scale of 0 to 100 where 0 is no effect and 100 is complete control) ([3]; 250 g ai/ha): 95
Johnsongrass plant response rating (0 to 100) ([3]; 31 g ai/ha): 35
Johnsongrass plant response rating (0 to 100) ([3]; 62 g ai/ha): 65
Plant response rating: Barley, Spring ([4]; 16 g ai/ha): 30
Plant response rating: Barley, Spring ([4]; 31 g ai/ha): 40
Plant response rating: Barley, Spring ([4]; 62 g ai/ha): 35
Plant response rating: Barley, Spring ([4]; 125 g ai/ha): 45
Plant response rating: Barley, Winter ([5]; 16 g ai/ha): 20
Plant response rating: Barley, Winter ([5]; 31 g ai/ha): 25
Plant response rating: Barley, Winter ([5]; 62 g ai/ha): 30
Plant response rating: Barley, Winter ([5]; 125 g ai/ha): 40
Plant response rating: Ryegrass, Ital. ([6]; 16 g ai/ha): 35
Plant response rating: Ryegrass, Ital. ([6]; 31 g ai/ha): 60
Plant response rating: Ryegrass, Ital. ([6]; 62 g ai/ha): 65
Plant response rating: Ryegrass, Ital. ([6]; 125 g ai/ha): 70
Plant response rating (0 to 100), Chickweed [7]: 70
Plant response rating: Chickweed ([7]; 31 g ai/ha): 80
Plant response rating: Chickweed ([7]; 62 g ai/ha): 100
Plant response rating: Chickweed ([7]; 125 g ai/ha): 100
Plant response rating (0 to 100), Windgrass [8]: 25
Plant response rating: Windgrass ([8]; 62 g ai/ha): 100
Plant response rating: Windgrass ([8]; 125 g ai/ha): 100
Plant response rating: Galium ([9]; 16 g ai/ha): 70
Plant response rating: Galium ([9]; 31 g ai/ha): 75
Plant response rating: Galium ([9]; 62 g ai/ha): 80
Plant response rating: Galium ([9]; 125 g ai/ha): 85
Plant response rating: Wheat, Spring ([10]; 16 g ai/ha): 25
Plant response rating: Wheat, Spring ([10]; 31 g ai/ha): 30
Plant response rating: Wheat, Spring ([10]; 62 g ai/ha): 35
Plant response rating: Wheat, Spring ([10]; 125 g ai/ha): 45
Plant response rating: Wheat, Winter ([11]; 16 g ai/ha): 15
Plant response rating: Wheat, Winter ([11]; 31 g ai/ha): 15
Plant response rating: Wheat, Winter ([11]; 62 g ai/ha): 25
Plant response rating: Wheat, Winter ([11]; 125 g ai/ha): 35

FC(F)(F)COc1nc(-c2ccc(Cl)cc2)nn1Cc1ccnc(C(F)(F)F)c1 [Compound 31]
Plant response rating: Canarygrass ([1]; 16 g ai/ha): 65
Plant response rating: Canarygrass ([1]; 31 g ai/ha): 75
Plant response rating: Canarygrass ([1]; 62 g ai/ha): 80
Plant response rating: Canarygrass ([1]; 125 g ai/ha): 80
Plant response rating (0 to 100), Ryegrass, Ital. [2]: 40
Plant response rating: Ryegrass, Ital. ([2]; 62 g ai/ha): 50
Plant response rating: Ryegrass, Ital. ([2]; 125 g ai/ha): 100
Plant response rating (scale of 0 to 100 where 0 is no effect and 100 is complete control) ([3]; 125 g ai/ha): 85
Plant response rating (scale of 0 to 100 where 0 is no effect and 100 is complete control) ([3]; 250 g ai/ha): 95
Johnsongrass plant response rating (0 to 100) ([3]; 31 g ai/ha): 75
Johnsongrass plant response rating (0 to 100) ([3]; 62 g ai/ha): 80
Plant response rating: Barley, Spring ([4]; 16 g ai/ha): 35
Plant response rating: Barley, Spring ([4]; 31 g ai/ha): 45
Plant response rating: Barley, Spring ([4]; 62 g ai/ha): 45
Plant response rating: Barley, Spring ([4]; 125 g ai/ha): 50
Plant response rating: Barley, Winter ([5]; 16 g ai/ha): 25
Plant response rating: Barley, Winter ([5]; 31 g ai/ha): 35
Plant response rating: Barley, Winter ([5]; 62 g ai/ha): 40
Plant response rating: Barley, Winter ([5]; 125 g ai/ha): 50
Plant response rating: Ryegrass, Ital. ([6]; 16 g ai/ha): 25
Plant response rating: Ryegrass, Ital. ([6]; 31 g ai/ha): 30
Plant response rating: Ryegrass, Ital. ([6]; 62 g ai/ha): 55
Plant response rating: Ryegrass, Ital. ([6]; 125 g ai/ha): 65
Plant response rating (0 to 100), Chickweed [7]: 80
Plant response rating: Chickweed ([7]; 31 g ai/ha): 90
Plant response rating: Chickweed ([7]; 62 g ai/ha): 100
Plant response rating: Chickweed ([7]; 125 g ai/ha): 100
Plant response rating (0 to 100), Windgrass [8]: 60
Plant response rating: Windgrass ([8]; 62 g ai/ha): 100
Plant response rating: Windgrass ([8]; 125 g ai/ha): 100
Plant response rating: Galium ([9]; 16 g ai/ha): 70
Plant response rating: Galium ([9]; 31 g ai/ha): 75
Plant response rating: Galium ([9]; 62 g ai/ha): 80
Plant response rating: Galium ([9]; 125 g ai/ha): 90
Plant response rating: Wheat, Spring ([10]; 16 g ai/ha): 30
Plant response rating: Wheat, Spring ([10]; 31 g ai/ha): 35
Plant response rating: Wheat, Spring ([10]; 62 g ai/ha): 40
Plant response rating: Wheat, Spring ([10]; 125 g ai/ha): 45
Plant response rating: Wheat, Winter ([11]; 16 g ai/ha): 20
Plant response rating: Wheat, Winter ([11]; 31 g ai/ha): 20
Plant response rating: Wheat, Winter ([11]; 62 g ai/ha): 20
Plant response rating: Wheat, Winter ([11]; 125 g ai/ha): 30
